This is an account of results in US12582631B2, “Methods of improving renal function” (Chinook Therapeutics, Inc., priority 2019, dated 2026).

For assay [1], the system named is primary human renal mesangial cells (HRMCs). Description: Proliferation (BrdU) of HRMCs stimulated with IgA-containing immune complexes from IgAN patients. As to conditions: HRMCs treated with IgA containing serum fractions from healthy controls. It is filed as cell-based.
Assay [2] relates to hallmark gene sets in kidney tissue of g-ddY mice. In words: Gene Set Enrichment Analysis (GSEA) of hallmark gene sets, g-ddY kidney RNA-seq. In kind it is in vivo, mouse.
Another assay concerns ET-1 stimulated HRMC. Description: Hallmark gene set enrichment in ET-1 stimulated HRMC treated with atrasentan. It is filed as cell-based, human. The conditions noted are these: atrasentan at 1 nM and 25 nM.
Assay [3] has as its system canonical signaling pathways in kidney tissue of g-ddY mice. Description: Ingenuity Pathway Analysis (IPA) of canonical pathways, g-ddY kidney RNA-seq. In kind it is in vivo, mouse. As to conditions: 30 mg/kg/day.
In assay [4] the test system is gene expression in kidney tissue of g-ddY mice. Description: RNA-seq differential gene expression in kidney tissue of g-ddY mice (edgeR). It is filed as in vivo, mouse. On the procedure: RNA isolation and sequencing libraries were generated using standard protocols. Sequencing was performed using an Illumina NextSeq500 using manufacturer's instructions with a read length of 75 bp and a read depth of 30 million. Raw data was assembled to FASTQ files. Following QC analysis, high quality sequencing reads (e.g., reads with a Phred quality score >36) were aligned to the mouse reference genome (GRCm38-mm10) using the default parameters of the align algorithm and transcript count tables of each library was generated using the default parameters of the featureCounts algorithm of the RSubread package (Liao […], Shi W, 2019). High quality sequencing reads mapped to 27,129 genes. Following additional QC of low count filtering (i.e. transcripts <10 counts across all samples), 16,207 genes were identified and used for further analysis. The remaining sequencing read counts of the included 16,207 genes were normalized to library size, log-transformed, and were quantified as counts per million (CPM). Select RNA-seq counts were validated using qPCR. Sequencing read counts (CPM) were used for identification of differential gene expression between specified populations using the quasi-likelihood methodology of the edgeR package. […] MA plots were generated using edgeR. Heatmaps and other plots were generated using the gplots and ggplot2 package.

The test system of assay [5] is IL-6 production in primary human renal mesangial cells (HRMCs). Description: ET-1 induced IL-6 production in HRMCs (ELISA). As to conditions: for IC50: Homo sapiens, Mesangial cell, read-out: IC50, ET-1 stimulated IL-6 production. It is filed as cell-based.
Another assay has as its system g-ddY mice. Description: UACR (albuminuria) in g-ddY mouse model of IgA nephropathy. The conditions noted are these: approximately 5 days. It is filed as in vivo. The source says: The grouped ddY (g-ddY) mouse is a spontaneous model of early-onset IgA nephropathy characterized by IgA immune complex deposition in the mesangium of the kidney, leading to significant proteinuria, glomerular hypercellularity, mesangioproliferative glomerular lesions, glomerular sclerosis and reduced kidney function, all hallmarks of human IgA nephropathy (J Am Soc Nephrol 23: 1364-1374, 2012). Consistent with human IgA nephropathy, the mesangial IgA deposits in the g-ddY mouse are also accompanied by deposition of IgG and complement C3.

Entries after “also recorded” stand apart in the source; their conditions may differ. Where two headings read alike, the source gives them in different places. Positions of bridges follow the written chain, without caps; N, C: chain ends. No end group written: not given here.

In the case of `CCCCN(CCCC)C(=O)CN1C[C@H](c2ccc3c(c2)OCO3)[C@@H](C(=O)O)[C@@H]1c1ccc(OC)cc1` [atrasentan, (2R,3R,4S)-4-(1,3-benzodioxol-5-yl)-1-[2-(dibutylamino)-2-oxoethyl]-2-(4-methoxyphenyl)pyrrolidine-3-carboxylic acid], the basal cell proliferation result in assay [1] is listed as “had no effect on basal cell proliferation”. Besides, the IL-6 signaling result in assay [2] (30 mg/kg/day) is given as “reduced IL-6 signaling”. For the same compound, the “cell proliferation associated signaling (mitotic spindle and G2M checkpoint)” value in assay [2] (30 mg/kg/day) is “reduced cell proliferation associated signaling”. The inflammatory response signaling result in assay [2] (30 mg/kg/day) is reported as “reduced inflammatory response signaling”. Further, the “NES of hallmark signaling pathways (TNFα signaling via NF-κB, epithelial mesenchymal transition, inflammatory response, IL6-JAK-STAT3 signaling, mitotic spindle, G2M checkpoint)” value in assay [2] (10, 20, and 30 mg/kg/day, adjusted p-value <0.05) is less than −1.5. Also, the “enrichment of hallmark gene sets” value in the assay on ET-1 stimulated HRMC was “under-expression of hallmark gene sets”. For the same compound, in assay [3], the NF-κB signaling result is “reduced NF-κB signaling”. Moreover, the PDGF signaling entry in assay [3] is recorded as “reduced PDGF signaling”. Also, the “differentially expressed genes of the ET1 gene signature” value in assay [4] (10 mg/kg/day vs untreated control) was “Ccnd1, Ppara, Agt, Map2k2 and Hoxa9 were upregulated while Grk5, Mllt3, Klf2, Pparg, Hgf, Edn1, Fos, Ptgs2, and IL-1b were downregulated”; in assay [4] (20 mg/kg/day vs untreated control), “Ccdn1, Cat, Ppara, Map2k2, Hoxa9, Agt, and Egfr were upregulated while Nfatc1, Grk5, Klf2, Cav1, Pparg, Itga5, Myc, Ednra, Sell, Hgf, Mmp2, Edn1, Syk, Fos, and IL-1b were downregulated”; in assay [4] (30 mg/kg/day vs untreated control) it was “upregulated genes Ccnd1, Agt, Cat, Map2k2, Hoxa9, and Ppara and downregulated genes Ednrb, Myc, Mllt3, Hdac7, Ednra, Itga5, Grk5, Pparg, Klf2, Hgf, Mmp2, Sell, Sphk1, Fos, Syk, Edn1, and IL-1b”. Moreover, the “Ednra and Ednrb gene expression” value in assay [4] (30 mg/kg/day) is “downregulated”. In addition, the “ET1 (End1) gene expression” value in assay [4] (all three doses (10, 20, 30 mg/kg/day)) is “downregulated”. Further, the IC50 in assay [5] (48 h, 10 ng/mL ET-1, 48 hours) is roughly 1 nM; in assay [5] (72 h, 10 ng/mL ET-1, 72 hours), roughly 1 nM. In addition, the “reduction of UACR from baseline” value with g-ddY mice (20 mg/kg/day in drinking water) and with g-ddY mice (30 mg/kg/day in drinking water) was greater than 60% each time. For the same compound, the entries for the “albuminuria compared to baseline (paired t-test)” value in the assay with g-ddY mice (20 mg/kg/day) and with g-ddY mice (30 mg/kg/day) were “reduced from baseline to a similar extent” and “reduced albuminuria from baseline”, respectively. The “effect on UACR compared to control group (un-paired t-test)” value in the assay on g-ddY mice (20 mg/kg/day) and in the assay with g-ddY mice (30 mg/kg/day) was “statistically significant compared to the control group; also recorded: significantly reduced albuminuria” each time.
In the case of “ET-1: endothelin 1 (ET-1), used at 10 ng/mL to stimulate primary human mesangial cells (CSCSSLMDKECVYFCHLDIIW; disulfide 1-15, 3-11; ends not checked; UniProt P05305 53-73, looked up)”, the “increase in IL-6 production” value in assay [5] (HRMCs exposed to ET-1 over 48 hours) is roughly 6 fold; in assay [5] (HRMCs exposed to ET-1 over 72 hours), roughly 2.2 fold.
